The values below come from US9067935B2 (Janssen Pharmaceutica, NV, priority 2010, dated 2015).

In general, IC50 refers to the concentration that gives 50% inhibition. High values mean weaker potency in that assay, low ones greater potency in that assay.

This assay concerns the target canine TRPM8 (Canis lupus familiaris, UniProt Q1A7N1). The assay can be described thus: In Vitro Canine TRPM8 Functional Assay (intracellular Ca2+ fluorescence, icilin challenge). The class given is cell-based. Conditions: HEK293 cells stably expressing canine TRPM8; for inhibition at 0.2 µM: HEK293, @ 0.2 μM, read-out: % Inh (%) @ 0.2 μM; for IC50: icilin at ~80% maximal response. On the procedure: The functional activity of compounds of the formula (I) was determined by measuring changes in intracellular calcium concentration using a Ca^2+-sensitive fluorescent dye. The changes in fluorescent signal were monitored by a fluorescence plate reader, either a FLIPR™ (Molecular Devices) or FDSS (Hamamatsu).
At 24 hrs prior to assay, HEK293 cells stably expressing canine TRPM8 were seeded in culture medium in black wall, clear-base poly-D-lysine coated 384-well plates (BD Biosciences, NJ, USA) and grown overnight in 5% CO2 at 37° C. On assay day, growth media was removed and cells were loaded with Calcium 3 Dye (Molecular Devices) for 35 min at 37° C., under 5% CO2 and then for 25 min at room temperature and atmosphere. Subsequently, cells were tested for agonist-induced increases in intracellular Ca^2+ levels using FLIPR™ or FDSS. Cells were challenged with a compound of the Formula (I) (at varying concentrations) and intracellular Ca^2+ was measured for 5 min prior to the addition of icilin to all wells to achieve a final concentration that produces approximately an 80% maximal response. EC50 or IC50 values for compounds of the present invention were determined from eight-point dose-response studies. Curves were generated using the average of quadruplicate wells for each data point.

canine TRPM8, sequence (Q1A7N1 1-1104): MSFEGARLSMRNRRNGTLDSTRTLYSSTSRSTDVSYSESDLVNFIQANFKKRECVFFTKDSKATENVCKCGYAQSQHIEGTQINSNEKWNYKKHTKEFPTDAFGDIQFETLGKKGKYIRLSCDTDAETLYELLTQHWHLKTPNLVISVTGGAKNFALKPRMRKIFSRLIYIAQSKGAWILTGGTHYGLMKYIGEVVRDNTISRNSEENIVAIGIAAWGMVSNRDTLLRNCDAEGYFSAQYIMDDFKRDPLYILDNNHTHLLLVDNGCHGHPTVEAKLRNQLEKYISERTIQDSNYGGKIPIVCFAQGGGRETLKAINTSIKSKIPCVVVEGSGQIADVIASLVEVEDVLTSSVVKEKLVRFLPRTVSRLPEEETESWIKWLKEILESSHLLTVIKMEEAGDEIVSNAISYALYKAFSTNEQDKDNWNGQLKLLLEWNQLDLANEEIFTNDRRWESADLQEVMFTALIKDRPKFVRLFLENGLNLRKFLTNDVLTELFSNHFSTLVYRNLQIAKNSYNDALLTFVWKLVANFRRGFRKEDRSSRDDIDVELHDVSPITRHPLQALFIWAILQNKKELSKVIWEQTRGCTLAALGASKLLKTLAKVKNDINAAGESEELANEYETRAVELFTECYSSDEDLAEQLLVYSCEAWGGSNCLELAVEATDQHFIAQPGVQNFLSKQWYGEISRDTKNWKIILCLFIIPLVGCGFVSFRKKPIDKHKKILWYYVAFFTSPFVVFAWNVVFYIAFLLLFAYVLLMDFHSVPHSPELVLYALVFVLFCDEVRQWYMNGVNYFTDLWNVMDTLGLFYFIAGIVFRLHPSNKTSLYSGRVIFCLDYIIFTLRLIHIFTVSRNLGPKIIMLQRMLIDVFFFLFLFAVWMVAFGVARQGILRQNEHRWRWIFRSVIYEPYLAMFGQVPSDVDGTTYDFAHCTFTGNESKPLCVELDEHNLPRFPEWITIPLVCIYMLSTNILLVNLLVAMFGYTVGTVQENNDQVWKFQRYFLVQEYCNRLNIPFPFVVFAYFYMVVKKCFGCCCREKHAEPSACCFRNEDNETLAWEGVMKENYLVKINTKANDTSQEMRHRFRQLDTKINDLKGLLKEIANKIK

Take `Cc1cccn2c(C)c(N(Cc3ccc(OC(F)(F)F)cc3)S(=O)(=O)c3ccccc3)nc12` [Compound 30]: the inhibition at 0.2 µM was 100% and the IC50 amounted to 10 nM.

For `Cc1cccn2c(C)c(N(Cc3ccc(F)c(C(F)(F)F)c3)S(=O)(=O)c3ccccc3)nc12` [Compound 31], the inhibition at 0.2 µM was 101% and the IC50 was determined as 10.3 nM.

As for `Cc1cccn2c(C)c(N(Cc3ccc(C(F)(F)F)c(F)c3)S(=O)(=O)c3ccccc3)nc12` [Compound 32], the inhibition at 0.2 µM worked out at 100% and the IC50 was found to be 12.5 nM.

Regarding `Cc1cccn2c(C)c(N(Cc3ccc(C(F)(F)F)cc3)S(=O)(=O)c3ccccc3)nc12` [Compound 33], the inhibition at 0.2 µM came out at 99% and the IC50 was determined as 26.7 nM.

`Cc1cccn2c(C)c(N(Cc3cccc(C(F)(F)F)c3)S(=O)(=O)c3ccccc3)nc12` [Compound 34]: the inhibition at 0.2 µM stood at 100% and the IC50 was 9.83 nM.

Take `Cc1cccn2c(C)c(N(Cc3ccc(F)c(C(F)(F)F)c3)S(C)(=O)=O)nc12` [Compound 35]: the inhibition at 0.2 µM was 74% and the IC50 worked out at 44.9 nM.

For the compound `Cc1c(N(Cc2ccc(OC(F)(F)F)cc2)S(=O)(=O)c2ccccc2)nc2ccc(Cl)cn12` [Compound 36], the inhibition at 0.2 µM stood at 100% and the midpoint of inhibition, the IC50, lay at 22.5 nM.

Take `Cc1c(N(Cc2ccc(F)c(C(F)(F)F)c2)S(=O)(=O)c2ccccc2)nc2ccc(Cl)cn12` [Compound 37]: the inhibition at 0.2 µM is 100% and the IC50 was 29.4 nM.

As for `Cc1ccc2nc(N(Cc3ccc(OC(F)(F)F)cc3)S(=O)(=O)c3ccccc3)c(C)n2c1` [Compound 39], the inhibition at 0.2 µM came to 99% and the IC50 turned out to be 28.9 nM.

Consider `Cc1ccc2nc(N(Cc3ccc(F)c(C(F)(F)F)c3)S(=O)(=O)c3ccccc3)c(C)n2c1` [Compound 40], for which the inhibition at 0.2 µM stood at 100% and the midpoint of inhibition, the IC50, lay at 22.2 nM.

For the compound `Cc1ccc2nc(N(Cc3ccc(C(F)(F)F)c(F)c3)S(=O)(=O)c3ccccc3)c(C)n2c1` [Compound 41], the inhibition at 0.2 µM worked out at 100% and the IC50 stood at 25.3 nM.

As to `Cc1ccn2c(C)c(N(Cc3ccc(F)c(C(F)(F)F)c3)S(=O)(=O)c3ccc(Br)cc3)nc2c1` [Compound 42], the inhibition at 0.2 µM came to 99% and inhibition was half-maximal at 25.4 nM (IC50).

As for `Cc1c(N(Cc2ccc(C(F)(F)F)cc2)S(=O)(=O)c2ccccc2)nc2ccc(Cl)cn12` [Compound 43], the inhibition at 0.2 µM was 99% and the 50% inhibitory concentration (IC50) worked out at 24.3 nM.

Turning to `Cc1c(N(Cc2cccc(C(F)(F)F)c2)S(=O)(=O)c2ccccc2)nc2ccc(Cl)cn12` [Compound 44], the inhibition at 0.2 µM came out at 100% and the IC50 was found to be 18.3 nM.

As for `Cc1c(N(Cc2cccc(OC(F)(F)F)c2)S(=O)(=O)c2ccccc2)nc2ccc(Cl)cn12` [Compound 45], the inhibition at 0.2 µM came out at 99% and the IC50 was 39 nM.

As to `Cc1c(N(Cc2ccc(F)c(Cl)c2)S(=O)(=O)c2ccccc2)nc2ccc(Cl)cn12` [Compound 46], the inhibition at 0.2 µM amounted to 99% and the IC50 came to 13.6 nM.

For `Cc1cccc2nc(N(Cc3ccc(F)c(C(F)(F)F)c3)S(=O)(=O)c3ccccc3)c(C)n12` [Compound 48], the inhibition at 0.2 µM is 99% and half-maximal inhibition (IC50) was put at 11 nM.

With `Cc1cccc2nc(N(Cc3ccc(C(F)(F)F)c(F)c3)S(=O)(=O)c3ccccc3)c(C)n12` [Compound 49], the inhibition at 0.2 µM stood at 99% and half-maximal inhibition (IC50) was put at 13.3 nM.

On to `CC(C)c1c(N(Cc2ccc(F)c(C(F)(F)F)c2)S(=O)(=O)c2ccccc2)nc2ccccn12` [Compound 50], for which the inhibition at 0.2 µM is 101% and the IC50 came out at 12.3 nM.

Take `CC(C)c1c(N(Cc2ccc(C(F)(F)F)c(F)c2)S(=O)(=O)c2ccccc2)nc2ccccn12` [Compound 51]: the inhibition at 0.2 µM is 101% and the IC50 came to 6.56 nM.

For the compound `CC(C)c1c(N(Cc2ccc(OC(F)(F)F)cc2)S(=O)(=O)c2ccccc2)nc2ccccn12` [Compound 52], the inhibition at 0.2 µM worked out at 101% and the IC50 stood at 9.43 nM.

In the case of `CC(C)c1c(N(Cc2ccc(C(F)(F)F)cc2)S(=O)(=O)c2ccccc2)nc2ccccn12` [Compound 53], the inhibition at 0.2 µM was 101% and the IC50 stood at 3.19 nM.

As to `CC(C)c1c(N(Cc2cccc(C(F)(F)F)c2)S(=O)(=O)c2ccccc2)nc2ccccn12` [Compound 54], the inhibition at 0.2 µM was 101% and the IC50 is 7.92 nM.

`CCc1c(N(Cc2ccc(F)c(C(F)(F)F)c2)S(=O)(=O)c2ccccc2)nc2c(C(F)(F)F)cccn12` [Compound 55, N-(3-Ethyl-8-trifluoromethylimidazo[1,2-a]pyridin-2-yl)-N-(4-fluoro-3-trifluoromethylbenzyl)benzenesulfonamide]: the inhibition at 0.2 µM turned out to be 94% and the IC50 was 33.4 nM.

Regarding `CCc1c(N(Cc2ccc(C(F)(F)F)c(F)c2)S(=O)(=O)c2ccccc2)nc2c(C(F)(F)F)cccn12` [Compound 56], the inhibition at 0.2 µM was determined as 99% and it took 65 nM to reach half-maximal inhibition (IC50).

Regarding `CCc1c(N(Cc2ccc(OC(F)(F)F)cc2)S(=O)(=O)c2ccccc2)nc2c(C(F)(F)F)cccn12` [Compound 57], the inhibition at 0.2 µM came out at 82% and the IC50 is 96.6 nM.

Consider `CCc1c(N(Cc2ccc(C(F)(F)F)cc2)S(=O)(=O)c2ccccc2)nc2c(C(F)(F)F)cccn12` [Compound 58], for which the inhibition at 0.2 µM stood at 87% and the IC50 worked out at 71.5 nM.

Turning to `CCc1c(N(Cc2cccc(C(F)(F)F)c2)S(=O)(=O)c2ccccc2)nc2c(C(F)(F)F)cccn12` [Compound 59], the inhibition at 0.2 µM is 97% and the IC50 is 80.2 nM.

For `O=S(=O)(c1ccccc1)N(Cc1ccc(C(F)(F)F)c(F)c1)c1nc2ccc(C(F)(F)F)cn2c1Cl` [Compound 60, N-(3-Chloro-6-trifluoromethylimidazo[1,2-a]pyridin-2-yl)-N-(3-fluoro-4-trifluoromethylbenzyl)benzenesulfonamide], the inhibition at 0.2 µM was 55%.

With `O=S(=O)(c1ccccc1)N(Cc1ccc(OC(F)(F)F)cc1)c1nc2ccc(C(F)(F)F)cn2c1Cl` [Compound 61], the inhibition at 0.2 µM is 47%.

On to `O=S(=O)(c1ccccc1)N(Cc1ccc(F)c(C(F)(F)F)c1)c1nc2ccc(C(F)(F)F)cn2c1Cl` [Compound 62], for which the inhibition at 0.2 µM stood at 56%.

`CCc1c(N(CCC2CC2)S(=O)(=O)c2ccccc2)nc2c(C(F)(F)F)cccn12` [Compound 63, N-(2-Cyclopropylethyl)-N-(3-ethyl-8-trifluoromethylimidazo[1,2-a]pyridin-2-yl)benzenesulfonamide]: the inhibition at 0.2 µM worked out at 99% and half-maximal inhibition (IC50) required 24.1 nM.

Take `CCc1c(N(CCCCC(F)(F)F)S(=O)(=O)c2ccccc2)nc2c(C(F)(F)F)cccn12` [Compound 64]: the inhibition at 0.2 µM came out at 99% and half-maximal inhibition (IC50) required 22 nM.

For the compound `CCc1c(N(CC2CC2)S(=O)(=O)c2ccccc2)nc2c(C(F)(F)F)cccn12` [Compound 65], the inhibition at 0.2 µM was 72% and the midpoint of inhibition, the IC50, lay at 62.8 nM.

Take `CCc1c(N(CCC(F)(F)F)S(=O)(=O)c2ccccc2)nc2c(C(F)(F)F)cccn12` [Compound 66]: the inhibition at 0.2 µM is 83%.

`Cc1ccn2c(C)c(N(Cc3ccc(OC(F)(F)F)cc3)S(=O)(=O)c3ccc(F)cc3)nc2c1` [Compound 67]: the inhibition at 0.2 µM came to 96% and the IC50 was 62.1 nM.

Regarding `Cc1ccc2nc(N(Cc3ccc(C(F)(F)F)c(F)c3)S(=O)(=O)c3ccc(F)cc3)c(C)n2c1` [Compound 68], the inhibition at 0.2 µM was determined as 100% and the IC50 is 41.6 nM.

For `O=S(=O)(c1ccccc1)N(Cc1ccc(F)c(C(F)(F)F)c1)c1nc2ccccn2c1C1CC1` [Compound 69], the IC50 is 28.2 nM. Also, the “% Inh (%) @ 0.2 μM” value (@ 0.2 μM) is 101%.

As for `O=S(=O)(c1ccccc1)N(Cc1ccc(C(F)(F)F)c(F)c1)c1nc2ccccn2c1C1CC1` [Compound 70], the inhibition at 0.2 µM is 101% and the IC50 amounted to 8.21 nM.

Take `O=S(=O)(c1ccccc1)N(Cc1ccc(OC(F)(F)F)cc1)c1nc2ccccn2c1C1CC1` [Compound 71]: the inhibition at 0.2 µM amounted to 101% and half-maximal inhibition (IC50) was put at 21.5 nM.

Turning to `O=S(=O)(c1ccccc1)N(Cc1ccc(C(F)(F)F)cc1)c1nc2ccccn2c1C1CC1` [Compound 72], the inhibition at 0.2 µM was 101% and the IC50 amounted to 11.3 nM.

Take `O=S(=O)(c1ccccc1)N(Cc1cccc(C(F)(F)F)c1)c1nc2ccccn2c1C1CC1` [Compound 73]: the inhibition at 0.2 µM is 100%.

Consider `O=S(=O)(c1ccc(N2CCOCC2)nc1)N(Cc1ccc(C(F)(F)F)c(F)c1)c1nc2ccc(Cl)cn2c1Cl` [Compound 74], for which the inhibition at 0.2 µM came out at 74% and the IC50 is 62.6 nM.

With `O=S(=O)(c1ccc(-n2cccn2)cc1)N(Cc1ccc(C(F)(F)F)c(F)c1)c1nc2ccccn2c1Br` [Compound 75], the inhibition at 0.2 µM was determined as 99% and the IC50 was determined as 1.94 nM.

`O=S(=O)(c1ccc(N2CCOCC2)nc1)N(Cc1ccc(OC(F)(F)F)cc1)c1nc2ccc(Cl)cn2c1Cl` [Compound 76]: the inhibition at 0.2 µM is 72% and the IC50 was found to be 70.5 nM.

`O=S(=O)(c1ccc(-n2cccn2)cc1)N(Cc1ccc(OC(F)(F)F)cc1)c1nc2ccccn2c1Br` [Compound 77]: the inhibition at 0.2 µM was 100% and half-maximal inhibition (IC50) required 2.27 nM.
